The source made the active and inactive calls.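 Rule for the calls: active = compounds giving half or more protection of infected cells from virus-caused growth loss, again on retest; inactive = the rest.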
System: CEM cells HIV-1 protection, formazan growth assay
Experiment: NCI AIDS Antiviral Assay
Settings: for IC50: measured here: growth of uninfected CEM cells
In short: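 CEM (human) cells, HIV-1 infected vs uninfected, 5-point dosing, formazan growth read-out. Retest threshold 50% protection.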

Row | SMILES | outcome | EC50 | IC50
1 | CCC(Oc1ccc(OC)c2ccccc(=O)c12)C(=O)O (stereo unspecified) | inactive | – | –
2 | NC1CCC2(O)c3ccccc3C2C1 (stereo unspecified) | – | > 200 µM | > 200 µM
3 | CC(=O)[O-].CC(=O)[O-].O=C(N/N=C/c1cc(Cl)cc(Cl)c1[OH2+])c1ccncc1.[Zn+2] | inactive | – | –
4 | O=C(O)CN(CCN(CC(=O)O)CC(=O)O)CC(=O)O.[Cu+2].[Na+] | – | > 200 µM | 8.91 µM
5 | OCCN(CCO)c1nc(N2CCCCC2)c2nc(N(CCO)CCO)nc(N3CCCCC3)c2n1 | inactive | – | –
6 | O=C(c1ccc(Cl)cc1)c1ccc(N=[N+]([O-])c2ccc(C(=O)c3ccc(Cl)cc3)cc2)cc1 | – | > 100 µM | > 100 µM
7 | Cc1ccc(C=Nc2ccc(SSc3ccc(N=Cc4ccc(C)cc4)cc3)cc2)cc1 | – | > 200 µM | 26.3 µM
8 | CC(=O)n1c(=O)c2cc3c(=O)n(-c4cccc(C#N)c4)c(=O)c3cc2c1=O | inactive | – | –
9 | CCOC(=O)/C(C#N)=C1/Sc2c(ncn(/N=C/c3ccc(OC)cc3)c2=O)N1c1ccccc1 | – | > 7.94 µM | > 7.94 µM
10 | COc1ccccc1NC(=O)CC(=O)n1nc(-c2ccccc2)c(N=Nc2ccccc2[N+](=O)[O-])c1-c1ccccc1 | – | > 33.9 µM | > 33.9 µM
11 | O=S1(=O)OC2(CCCCC2)c2ccccc21 | – | > 209 µM | > 209 µM
12 | CC(C)(N=NC(C)(C)C(=N)N)C(=N)N | – | > 200 µM | > 200 µM
13 | CC(C)[Si](Oc1cc2c3c(ccc2c(O)c1[C@@H](C)CO[Si](C)(C)C(C)(C)C)C(C)(C)CCC3)(C(C)C)C(C)C | – | > 200 µM | 40.7 µM
14 | CCCCCCCCCCCCCCCC=C(c1cc(Cl)c(OC)c(C(=O)OC)c1)c1cc(Cl)c(OC)c(C(=O)OC)c1 | – | > 6.61 µM | > 6.61 µM
15 | O=S(O)CCCCSSCc1ccccc1CSSCCCCS(=O)O | inactive | – | –
16 | CC1(O)CC(=O)c2c(cc3ccc(-c4c5c(c(O)c6c(O)cccc46)C(=O)CC(C)(O)C5)c(O)c3c2O)C1 (stereo unspecified) | – | > 200 µM | 0.389 µM
17 | CC/C(CC(=O)CCC(=O)Nc1ccccc1[N+](=O)[O-])=N/NC(=O)C[n+]1ccccc1 | – | > 25.7 µM | > 25.7 µM
18 | CCSC1=[N+](SCC)CCCS1 | – | > 708 µM | 269 µM
19 | Cn1c(=O)sc2cc(C(=S)N3CCCCC3)ccc21 | – | > 200 µM | 107 µM
20 | Cc1ccc2c(c1)nc1n2C(c2c(F)cccc2F)SC1 (stereo unspecified) | – | > 200 µM | 33.1 µM
21 | Cc1[nH]nc2c1NC(=O)OC2 | – | > 1170 µM | > 1170 µM
22 | COc1ccc(C2=NOC3COC4C=CC=CC4OCC23)cc1 (stereo unspecified) | – | > 83.2 µM | > 83.2 µM
23 | O=C1Cc2c(-c3ccc(Cl)cc3)cc(-c3ccccc3)nc2-c2ccccc2N1 | – | > 100 µM | 28.8 µM

Row | SMILES | outcome | EC50 | IC50
24 | CCC1C2CC3C4N(C)c5ccccc5C45CC(C2C5O)N3C1O (stereo unspecified) | inactive | – | –
25 | CCOC(=O)c1ccc(/C=C/c2cccn2C(=O)OC(C)(C)C)[nH]1 | inactive | – | –
26 | O=S(=O)(c1ccccc1)N1CCCC(c2ccccc2)CC1 (stereo unspecified) | inactive | – | –
27 | C=C1CC(CCCl)(c2ccccc2)OC1=O (stereo unspecified) | – | > 41.7 µM | 6.46 µM
28 | CCOC(=O)CN1C(=O)c2c(c(C)n(-c3ccccc3)c2C)C1=O | – | > 200 µM | > 200 µM
29 | CCOC(=O)c1ccc(CSc2ccc(OC)cc2)cc1 | – | > 33.1 µM | 16.2 µM
30 | O=C1OC(c2ccccc2)=N/C1=C\c1c(O)cc(O)cc1O | – | > 87.1 µM | > 87.1 µM
31 | Cc1ccc2c(c1C)C(=O)/C(=C/c1cccc(C)c1C(=O)O)C2 | inactive | – | –
32 | COc1ccc(CNc2nc3cc(C(F)(F)F)ccc3nc2C(=O)O)cc1 | – | > 200 µM | 38.9 µM
33 | CN(C)c1cccc(NC2=NCCO2)c1 | – | > 200 µM | 33.9 µM
34 | CSc1nc(NC(=O)O)c(N(C(C)=O)C(=O)O)c(=O)n1C | – | > 794 µM | > 794 µM
35 | CNC(=O)OCC1=CC(=O)C=C(OC)C1=O | – | > 550 µM | 11 µM
36 | COc1cccc2c1[C@H]1OC(=O)NC1CCCCC2 (stereo partly specified) | – | > 200 µM | > 200 µM
37 | CCO[C@@H]1OC(=O)[C@H]2C(c3ccc(Cl)cc3)=NO[C@@H]12 | – | > 35.5 µM | > 35.5 µM
38 | Nc1nc(Cl)c(N)c(NCC2(CO)CC(CCCc3ccccc3)C2)n1 (stereo unspecified) | – | > 0.2 µM | 0.186 µM
39 | CCCCCCCCCCCCC(Br)C(=O)OCC1OC(n2cc(C)c(=O)[nH]c2=O)CC1N=[N+]=[N-] (stereo unspecified) | – | 0.0977 µM | 3.39 µM
40 | N#C/C(=C\c1ccc(O)c(O)c1)C(=O)c1ccc(O)c(O)c1 | – | > 200 µM | 51.3 µM
41 | COc1ccccc1NC(=O)CC(=O)n1nc(C)c(N=Nc2ccccc2C(=O)O)c1C | – | > 302 µM | 245 µM
42 | COC(=O)C1C(=O)CC2C(C(=O)OC)C(=O)CC12 (stereo unspecified) | – | > 234 µM | 105 µM
43 | CN1C(=O)C(c2c[nH]c3ccccc23)N(C)C(=O)C1c1c[nH]c2ccccc12 (stereo unspecified) | – | > 200 µM | > 200 µM
44 | CN1CCN(c2n[nH]c(=O)c3c2nnn3Cc2ccccc2)CC1 | – | > 200 µM | > 200 µM
45 | CC(=O)OC1CC[C@@]2(C)C(C1)CC(OC(C)=O)[C@@H]1C2CC(OC(C)=O)[C@]2(C)C(C(C)CC=C(c3ccc(Cl)cc3)c3ccc(Cl)cc3)CCC12 (stereo partly specified) | – | > 200 µM | 57.5 µM
46 | CCOC(=O)/C(C#N)=C/c1[nH]c(C(=O)OCc2ccccc2)c(C)c1C | inactive | – | –

Row | SMILES | outcome | EC50 | IC50
47 | COc1ccc(CCNC(=O)Cc2cc(OC)c(OC)cc2CO)cc1OC | – | > 200 µM | 195 µM
48 | CC(C)COC(=O)c1ccc(N=Cc2ccc(C=Nc3ccc(C(=O)OCC(C)C)cc3)cc2)cc1 | – | > 10.7 µM | > 10.7 µM
49 | Nc1ccc2ccc(N3CCNCC3)nc2n1 | – | > 200 µM | 46.8 µM
50 | CN(C)C(C1=C(O)C(c2ccccc2)N(c2ccccc2)C1=O)N1CCOCC1 (stereo unspecified) | inactive | – | –
51 | CCOC(=O)C(Cc1c(-c2[nH]c3ccccc3c2CC(NC(=O)CNC(C)=O)C(=O)OCC)[nH]c2ccccc12)NC(=O)CNC(C)=O (stereo unspecified) | – | > 100 µM | 21.9 µM
52 | COP(=O)(CC(=O)C1OC(C)(C)OC1C(O)COCc1ccccc1)OC (stereo unspecified) | – | > 324 µM | > 324 µM
53 | C=CC(C)(O)CN(C=O)Cc1ccccc1 (stereo unspecified) | – | > 589 µM | > 589 µM
54 | O=C(CCCCCCCCCCc1ccccc1)C1=C(O)C(O)CCC1=O (stereo unspecified) | inactive | – | –
55 | CC(=O)OCC1=C(C)C[C@H]([C@@H](COC(C)=O)C2CCC3C4C[C@H]5O[C@]56CC=CC(=O)[C@]6(C)C4CC[C@@]32C)OC1=O (stereo partly specified) | – | > 200 µM | 0.135 µM
56 | C/C(CN1C(=O)c2ccccc2C1=O)=N\NS(=O)(=O)c1ccc(Cl)cc1 | – | > 457 µM | > 457 µM
57 | O=c1c2ccc(Cl)cc2nc2n1OCC2 | – | > 132 µM | > 132 µM
58 | CC(NS(=O)(=O)c1ccccc1)C(=O)O (stereo unspecified) | inactive | – | –
59 | CCOC(=O)C(=O)NNc1cc(=O)n(C)c(=O)n1C | – | > 200 µM | > 200 µM
60 | Clc1ccc(C2=NCON=C2c2ccc(Cl)cc2)cc1 | inactive | – | –
61 | NNC(=S)N/N=C(\c1nc2ccc(Cl)cc2[nH]c1=O)C(O)c1cccc([N+](=O)[O-])c1 (stereo unspecified) | – | > 562 µM | 120 µM
62 | Cc1ccc2c(c1)S(=O)(=O)N(C)C(c1ccccc1)=C2 | – | > 18.2 µM | > 18.2 µM
63 | c1ccc2[nH]c(C3CCCCO3)nc2c1 (stereo unspecified) | – | > 200 µM | > 200 µM
64 | CC(=O)OCC1OC(Nc2cc(=O)[nH]c(=O)[nH]2)C(OC(C)=O)C(OC(C)=O)C1OC(C)=O (stereo unspecified) | inactive | – | –
65 | O=C(O)C(=O)CC(=O)c1ccc(Cl)cc1 | – | > 200 µM | > 200 µM
66 | Nc1nn2cc3c(nc2c1N=Nc1ccccc1)-c1ccccc1C3 | – | > 200 µM | > 200 µM
67 | N#CC1(C#N)NC(c2ccccc2)C(C#N)(C#N)NC1c1ccccc1 (stereo unspecified) | – | > 200 µM | > 200 µM
68 | Cc1ccc(NC(=O)CCC(=O)C2CC(=O)CCC2=O)cc1C (stereo unspecified) | – | > 794 µM | > 794 µM
69 | CCOC(=O)C(=CNC(=S)Nc1c(CC)cccc1C(C)(C)C)C(=O)OCC | – | > 200 µM | > 200 µM

Row | SMILES | outcome | EC50 | IC50
70 | CN1CCN(C(=S)N(C(=O)c2ccco2)C2CCCCC2)CC1 | – | > 741 µM | 631 µM
71 | O=C(CC1(O)C(=O)Nc2c(Cl)ccc(Cl)c21)c1ccco1 (stereo unspecified) | – | > 398 µM | 77.6 µM
72 | O=C1N=C2C=CC=CN2CC1O (stereo unspecified) | – | > 200 µM | > 200 µM
73 | CCCCCCCCCCC(=O)CCCCCCC(=O)O | inactive | – | –
74 | COc1cc(N(CCC#N)CCC#N)ccc1/C(N=Nc1ccc(C)cc1)=N/NC(=O)c1cc(Br)ccc1O | – | > 200 µM | 12.6 µM
75 | NC1(C(=O)O)C2CC3CC(C2)CC1C3 (stereo unspecified) | inactive | – | –
76 | C[N+]1(CCCl)CCc2cc([N+](=O)[O-])ccc2C1 (stereo unspecified) | – | > 200 µM | > 200 µM
77 | NC(=O)COc1c(Br)cc(Br)cc1Br | – | > 34.7 µM | > 34.7 µM
78 | CN(C)c1ccc(/C=C(\C#N)c2ccccc2)cc1 | – | > 5.89 µM | –
79 | O=C(O)c1cc[c]([Sb](=[O])([OH])[OH])cc1[N+](=O)[O-] | – | 10.2 µM | 398 µM
80 | CCOP(=O)(OCC)/C(C#N)=C/c1cccc(F)c1 | – | > 331 µM | > 331 µM
81 | CN(C)CCONC(=O)C12CC3CC(CC(C3)C1)C2 | inactive | – | –
82 | O=C1/C(=C/c2ccccc2)N=C(c2ccccc2)N1n1c(-c2ccccc2)nc2ccccc2c1=O | – | > 200 µM | 75.9 µM
83 | CCCCCCCCCCCC(O)=C1C(=O)CC(O)CC1=O (stereo unspecified) | – | > 17 µM | > 17 µM
84 | COC1OC2=CCC3C(=O)NC(=O)C3C2[C@H](OC)C1OC (stereo partly specified) | inactive | – | –
85 | CN1CN(c2ccccc2)C2(CCN(Cc3nc4ccccc4s3)CC2)C1=O | – | > 200 µM | 30.9 µM
86 | O=c1[nH]c(=O)n(C2OC(CO)C(O)C2O)cc1OCc1ccccc1 (stereo unspecified) | – | > 708 µM | > 708 µM
87 | COC(=O)C1CC2(C)C=CC1N(C(=O)OCc1ccccc1)C2 (stereo unspecified) | – | 63.1 µM | 102 µM
88 | NC(=O)CNC(=O)c1ccccc1SC(=O)CCCC[n+]1ccccc1 | – | 1.74 µM | 178 µM
89 | CC12CC(C/C1=N/O)C(C)(C)C2 (stereo unspecified) | – | > 1480 µM | > 1480 µM
90 | CC(=O)OC[C@]1(C)CCCC2(C)C1CCC1C=C(C)[C@H]3CCC12C3 (stereo partly specified) | – | > 107 µM | > 107 µM
91 | ClC[Si]12OCCN(CCO1)CCO2 | inactive | – | –

Reference: PubChem BioAssay AID179 (DTP/NCI, 2004)
